Laboratory results: ChEMBL document CHEMBL1201862, “PubChem BioAssay data set” (2004)
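Five compound concentrations were applied to cells in 96-well plates for 48 hours; endpoints were derived by simple linear interpolation of the resulting dose-response curve. GI50 = concentration required for 50% inhibition of growth.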 Active and inactive are the calls of the source. Rule as the data show it: active = GI50 up to about 1.1 µM and inactive = higher.

Legend:
Test in all cases: inhibition of tumour cell growth, NCI panel, 48 h
[1] = test system: HT-29
[2] = test system: NCI-H522
[3] = test system: DU-145
[4] = test system: COLO 205
[5] = test system: HL-60
[6] = test system: RPMI-8226
[7] = test system: M14
[8] = test system: HCT-15
[9] = test system: U-251
[10] = test system: SK-MEL-5
[11] = test system: K562
[12] = test system: MDA-N
[13] = test system: SNB-19
[14] = test system: 786-0
[15] = test system: LOX IMVI
[16] = test system: SN12C
[17] = test system: IGROV-1
[18] = test system: CAKI-1

Row | Structure (SMILES) | GI50 [1] | GI50 [2] | GI50 [3] | GI50 [4] | GI50 [5] | GI50 [6] | GI50 [7] | GI50 [8] [µM] | GI50 [9] | GI50 [10] | GI50 [11] | GI50 [12] | GI50 [13] | GI50 [14] | GI50 [15] | GI50 [16] | GI50 [17] | GI50 [18]
1 | O=C1OC[C@H]2[C@@H]1[C@H]1O[C@@H]2C2=C(CCC2)C1=O | > 100 µM (inactive) | > 100 µM (inactive) | > 100 µM (inactive) | > 100 µM (inactive) | > 100 µM (inactive) | > 100 µM (inactive) | > 100 µM (inactive) | > 100 | > 100 µM (inactive) | > 100 µM (inactive) | > 100 µM (inactive) | > 100 µM (inactive) | > 100 µM (inactive) | > 100 µM (inactive) | > 100 µM (inactive) | > 100 µM (inactive) | > 100 µM (inactive) | 
2 | COC(=O)C(=O)C(C(=O)C(=O)Nc1ccc(C)c(C)c1)c1nc2ccc([N+](=O)[O-])cc2nc1O (stereo not drawn) | > 100 µM (inactive) | 48.4 µM (inactive) |  |  | > 100 µM (inactive) | > 100 µM (inactive) | > 100 µM (inactive) | > 100 | > 100 µM (inactive) | > 100 µM (inactive) | > 100 µM (inactive) | > 100 µM (inactive) | 18.5 µM (inactive) | > 100 µM (inactive) | > 100 µM (inactive) | > 100 µM (inactive) | > 100 µM (inactive) | > 100 µM (inactive)
3 | Cc1ccc(S(=O)(=O)N(CCNC(=O)c2cccc(O)c2O)c2cc3c4c(c2)Oc2cccc5c2C4(C)c2c(cccc2O3)O5)cc1 | > 100 µM (inactive) |  | > 100 µM (inactive) |  |  | > 100 µM (inactive) | > 100 µM (inactive) | > 100 | 8.83 µM (inactive) | 22.1 µM (inactive) | 41.1 µM (inactive) | 6.93 µM (inactive) | > 100 µM (inactive) | > 100 µM (inactive) | 6.08 µM (inactive) | > 100 µM (inactive) | 5.93 µM (inactive) | > 100 µM (inactive)
4 | Oc1ccc2ccccc2c1/N=N/c1cc(Cl)ccc1Cl | 19.3 µM (inactive) | 17.1 µM (inactive) |  | 23.3 µM (inactive) | 22.6 µM (inactive) | > 50 µM (inactive) | 14.6 µM (inactive) | > 50 | 9.16 µM (inactive) | 38.5 µM (inactive) | 20.7 µM (inactive) | 27.5 µM (inactive) | 15.8 µM (inactive) | 9.14 µM (inactive) |  | 13.3 µM (inactive) | 7.67 µM (inactive) | 34.4 µM (inactive)
5 | N/C(=N\Nc1cccc(Cl)c1)c1cccnc1 | 27.2 µM (inactive) | 29.6 µM (inactive) | 82.2 µM (inactive) | 29 µM (inactive) | 4.28 µM (inactive) | 14.7 µM (inactive) | 17.1 µM (inactive) | 39.6 | 41.8 µM (inactive) | 32.9 µM (inactive) | 4.04 µM (inactive) |  | 58.9 µM (inactive) | 38.2 µM (inactive) | 50 µM (inactive) | 60 µM (inactive) | 70.6 µM (inactive) | 3.49 µM (inactive)
6 | CCN(CCCOc1ccccc1)CCN(CC)CCCOc1ccccc1 | 7.59 µM (inactive) | 14.2 µM (inactive) | 10.9 µM (inactive) | 5.86 µM (inactive) | 7.46 µM (inactive) | 0.249 µM (active) | 11.5 µM (inactive) | 10.4 | 12.9 µM (inactive) | 2.22 µM (inactive) | 3.1 µM (inactive) |  | 9.1 µM (inactive) | 18.4 µM (inactive) | 10.8 µM (inactive) | 20 µM (inactive) | 10.9 µM (inactive) | 16.4 µM (inactive)
7 | O=C1NC(=O)C2=C1CCC2O (stereo not drawn) | > 100 µM (inactive) |  | > 100 µM (inactive) | > 100 µM (inactive) | > 100 µM (inactive) | > 100 µM (inactive) | > 100 µM (inactive) | > 100 | > 100 µM (inactive) |  | > 100 µM (inactive) | > 100 µM (inactive) | > 100 µM (inactive) | > 100 µM (inactive) | > 100 µM (inactive) | > 100 µM (inactive) | > 100 µM (inactive) | > 100 µM (inactive)
8 | Cc1nc(C(N)=S)sc1C(=O)C/C(=N/N)C(=O)Nc1cccc(Cl)c1C | > 100 µM (inactive) | > 100 µM (inactive) |  |  | > 100 µM (inactive) | > 100 µM (inactive) | > 100 µM (inactive) | > 100 | > 100 µM (inactive) | > 100 µM (inactive) | > 100 µM (inactive) | > 100 µM (inactive) | > 100 µM (inactive) | > 100 µM (inactive) | > 100 µM (inactive) | > 100 µM (inactive) | > 100 µM (inactive) | > 100 µM (inactive)
9 | CCOC(=O)c1c(N2CCCC2)ncn(-c2ccccc2)c1=S | > 100 µM (inactive) | > 100 µM (inactive) | > 100 µM (inactive) | > 100 µM (inactive) | > 100 µM (inactive) | > 100 µM (inactive) | > 100 µM (inactive) | > 100 | > 100 µM (inactive) | > 100 µM (inactive) | > 100 µM (inactive) | > 100 µM (inactive) | > 100 µM (inactive) | > 100 µM (inactive) | > 100 µM (inactive) | > 100 µM (inactive) | > 100 µM (inactive) | 
10 | CC(=O)N1C(=O)c2cc3ccccc3cc21 |  |  | > 100 µM (inactive) | > 100 µM (inactive) | > 100 µM (inactive) | > 100 µM (inactive) | > 100 µM (inactive) | 90.2 | > 100 µM (inactive) | > 100 µM (inactive) | > 100 µM (inactive) | > 100 µM (inactive) | > 100 µM (inactive) | > 100 µM (inactive) | > 100 µM (inactive) | > 100 µM (inactive) | 38.8 µM (inactive) | 
11 | O=C1/C(=C/c2cccs2)NC(=S)N1CN1CCCC(CO)C1 (stereo not drawn) | > 100 µM (inactive) |  | > 100 µM (inactive) | > 100 µM (inactive) |  | 99.1 µM (inactive) | > 100 µM (inactive) | > 100 | > 100 µM (inactive) | > 100 µM (inactive) | > 100 µM (inactive) | > 100 µM (inactive) | > 100 µM (inactive) | > 100 µM (inactive) | > 100 µM (inactive) | > 100 µM (inactive) | > 100 µM (inactive) | 
12 | COc1c(C2(c3ccc(F)cc3)SCCCS2)c(=O)c1=O | > 100 µM (inactive) |  | > 100 µM (inactive) | > 100 µM (inactive) | 31.6 µM (inactive) | > 100 µM (inactive) | > 100 µM (inactive) | > 100 | > 100 µM (inactive) | > 100 µM (inactive) | > 100 µM (inactive) | > 100 µM (inactive) | > 100 µM (inactive) | > 100 µM (inactive) | > 100 µM (inactive) | > 100 µM (inactive) |  | > 100 µM (inactive)
13 | CCOC(=O)Oc1ccc2c(c1)c(=O)c1c(NCCN(CC)CC)ccc3nnn2c31 | 1.29 µM (inactive) | 0.69 µM (active) | 1.89 µM (inactive) | 1.01 µM (active) |  | 0.908 µM (active) | 5.2 µM (inactive) | 0.841 | 1.73 µM (inactive) | 1.7 µM (inactive) | 0.948 µM (active) | 2.94 µM (inactive) | 1.21 µM (inactive) | 0.488 µM (active) | 1.18 µM (inactive) | 0.809 µM (active) | 0.519 µM (active) | 
14 | C[N+]1(C)C2Cc3ccccc3C1Cc1ccccc12 | > 100 µM (inactive) | > 100 µM (inactive) | > 100 µM (inactive) | > 100 µM (inactive) | > 100 µM (inactive) | 62.7 µM (inactive) | > 100 µM (inactive) | > 100 | > 100 µM (inactive) | > 100 µM (inactive) |  | 78.2 µM (inactive) | > 100 µM (inactive) | > 100 µM (inactive) | > 100 µM (inactive) | > 100 µM (inactive) | > 100 µM (inactive) | 
15 | Clc1ccc(SCCSCCCCCCCCCCSCCSc2ccc(Cl)cc2)cc1 | > 100 µM (inactive) | > 100 µM (inactive) |  | > 100 µM (inactive) | > 100 µM (inactive) | > 100 µM (inactive) |  | > 100 | > 100 µM (inactive) | > 100 µM (inactive) | > 100 µM (inactive) |  | > 100 µM (inactive) | > 100 µM (inactive) | > 100 µM (inactive) | > 100 µM (inactive) | > 100 µM (inactive) | > 100 µM (inactive)
16 | CCN1C[C@]2(C)CC[C@H](OC)C34C5C[C@@H]6[C@@H](OC)C[C@@](OC)(C5[C@H]6OCc5ccccc5)C(C13)[C@H](OC(C)=O)[C@@H]42 (stereo partly drawn) | > 100 µM (inactive) |  | > 100 µM (inactive) | 75.2 µM (inactive) | 6.95 µM (inactive) | > 100 µM (inactive) | 97.1 µM (inactive) | > 100 | > 100 µM (inactive) | > 100 µM (inactive) | > 100 µM (inactive) | > 100 µM (inactive) | > 100 µM (inactive) | > 100 µM (inactive) | > 100 µM (inactive) | > 100 µM (inactive) | > 100 µM (inactive) | 
17 | COc1ccc(-c2c3c(n(C4OC(CO)C(O)C(O)C4O)c(=S)c2C#N)CCCC3)cc1 (stereo not drawn) | > 100 µM (inactive) |  |  | > 100 µM (inactive) | 72.9 µM (inactive) |  | > 100 µM (inactive) | > 100 |  | 62.2 µM (inactive) |  | > 100 µM (inactive) |  | > 100 µM (inactive) | > 100 µM (inactive) | > 100 µM (inactive) | > 100 µM (inactive) | > 100 µM (inactive)
